Among the test systems are SK-OV-3; Hs-578T; RPMI-8226; IGROV-1; NCI/ADR-RES; M14; MCF7; CCRF-CEM; HL-60; MDA-MB-231; BT-549; SK-MEL-2; OVCAR-3; U-251; SF-539; SK-MEL-28; NCI-H460; MDA-N; OVCAR-4; SR.
What all share (experiment): inhibition of tumour cell growth, NCI panel, 48 h

SMILES strings stand for the structures.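 Exposure lasted 48 hours, with cells grown in 96-well plates and compounds tested at five concentrations. GI50 = concentration required for 50% inhibition of growth.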 Calls of active or inactive are those of the source. Rule as the data show it: active = GI50 up to about 1.1 µM and inactive = higher.

As to `O=C1CC(c2ccc(O)cc2)C2(O1)C(=O)OC(C(O)CO)C2O` (centres undefined), the GI50 with SK-OV-3, in the assay with Hs-578T, with RPMI-8226, in the assay on IGROV-1, with NCI/ADR-RES and in the assay on M14 was > 100 µM (inactive) throughout. Moreover, the GI50 in the assay on MCF7, in the assay with CCRF-CEM, in the assay with HL-60, with MDA-MB-231, in the assay on BT-549 and in the assay on SK-MEL-2 was > 100 µM (inactive) throughout. Besides, the GI50 with OVCAR-3, in the assay on U-251, with SF-539 and in the assay with SK-MEL-28 was > 100 µM (inactive) throughout.
On to `CCSCCCSCCSCC`, for which the GI50 was > 100 µM (inactive) with SK-OV-3; > 100 µM (inactive) in the assay on IGROV-1; > 100 µM (inactive) in the assay with M14; > 100 µM (inactive) in the assay with MCF7; > 100 µM (inactive) with CCRF-CEM; 26.4 µM (inactive) with HL-60. In addition, the GI50 in the assay on NCI-H460, with MDA-MB-231, in the assay with BT-549, in the assay on OVCAR-3, with U-251 and with MDA-N was > 100 µM (inactive) in each case. For the same compound, the GI50 with SF-539 was > 100 µM (inactive); with SK-MEL-28, > 100 µM (inactive); in the assay on OVCAR-4 it was 81.5 µM (inactive).
In the case of `COC(=O)Nc1cc(OCCCOC(C)=O)c2[nH]c(C(=O)OC)cc2c1C[C@H](O)CO`, the GI50 in the assay on SK-OV-3 was > 100 µM (inactive); in the assay with SR, > 100 µM (inactive); with RPMI-8226, > 100 µM (inactive); with IGROV-1, 90.4 µM (inactive); in the assay on NCI/ADR-RES, > 100 µM (inactive); in the assay with M14, > 100 µM (inactive). Moreover, the GI50 was > 100 µM (inactive) in the assay on MCF7; > 100 µM (inactive) in the assay with CCRF-CEM; > 100 µM (inactive) in the assay with HL-60; > 100 µM (inactive) in the assay with MDA-MB-231; 54.7 µM (inactive) in the assay with BT-549; > 100 µM (inactive) with SK-MEL-2. The GI50 with OVCAR-3, in the assay with U-251, with MDA-N, with SF-539, in the assay with SK-MEL-28 and with OVCAR-4 was > 100 µM (inactive) each time.
In the case of `CC(C)(C)N1CSC(=S)N(Cc2ccco2)C1`, the GI50 with SK-OV-3 was 5.75 µM (inactive); in the assay on SR, 0.555 µM (active); in the assay on Hs-578T, 4.78 µM (inactive); in the assay on RPMI-8226, 0.177 µM (active); in the assay with IGROV-1, 2.55 µM (inactive); with NCI/ADR-RES, 4.11 µM (inactive). Further, the GI50 with M14 is 2.46 µM (inactive); in the assay with MCF7, 0.52 µM (active); in the assay on CCRF-CEM, 1.08 µM (active); in the assay on HL-60 it was 1.53 µM (inactive); in the assay with NCI-H460, 5.89 µM (inactive); with BT-549, 2.79 µM (inactive). Further, the GI50 was 3.55 µM (inactive) with SK-MEL-2; 1.94 µM (inactive) with OVCAR-3; 3.72 µM (inactive) in the assay on U-251; 2.85 µM (inactive) with MDA-N; 0.708 µM (active) in the assay with SF-539; 2.4 µM (inactive) in the assay with SK-MEL-28. The GI50 with OVCAR-4 was 12.1 µM (inactive).
In the case of `Cc1n[nH]c(=O)n1/N=C/c1c[nH]c2ccccc12`, the GI50 in the assay on SK-OV-3 was > 100 µM (inactive); in the assay with SR, > 100 µM (inactive); with RPMI-8226, > 100 µM (inactive); in the assay on IGROV-1, 35.2 µM (inactive); in the assay with NCI/ADR-RES, > 100 µM (inactive); with M14, > 100 µM (inactive). In addition, the GI50 with MCF7 is > 100 µM (inactive); in the assay with CCRF-CEM it was > 100 µM (inactive); in the assay with NCI-H460, > 100 µM (inactive); with MDA-MB-231 it was > 100 µM (inactive); in the assay on BT-549 it was 38.4 µM (inactive); with SK-MEL-2, > 100 µM (inactive). The GI50 in the assay with OVCAR-3, in the assay with U-251, in the assay with SF-539, in the assay on SK-MEL-28 and in the assay with OVCAR-4 was > 100 µM (inactive) each time.
Take `CCCCC(C)(C/C=C/[C@@H]1[C@@H](C(O)CCCCCC(=O)OC)C(=O)C[C@H]1O[Si](C)(C)C(C)(C)C)O[Si](C)(C)C` (some centres undefined): the GI50 is > 100 µM (inactive) in the assay on SK-OV-3; 25.3 µM (inactive) in the assay on SR; 31.2 µM (inactive) in the assay with RPMI-8226; > 100 µM (inactive) with IGROV-1; > 100 µM (inactive) in the assay on NCI/ADR-RES; > 100 µM (inactive) in the assay with M14. Besides, the GI50 was 42 µM (inactive) in the assay on MCF7; 25.8 µM (inactive) in the assay with CCRF-CEM; 83.4 µM (inactive) in the assay on NCI-H460; > 100 µM (inactive) with MDA-MB-231; > 100 µM (inactive) with BT-549; 58.7 µM (inactive) in the assay with SK-MEL-2. The GI50 was 91 µM (inactive) in the assay on OVCAR-3; 57.5 µM (inactive) in the assay on U-251; > 100 µM (inactive) with SF-539; 77.4 µM (inactive) with SK-MEL-28; 86.7 µM (inactive) in the assay on OVCAR-4.
Turning to `O=C1/C(=C/c2cccc3ccccc23)Cc2ccccc21`, the GI50 is 18.6 µM (inactive) with SK-OV-3; 57.3 µM (inactive) in the assay on SR; 22 µM (inactive) in the assay with Hs-578T; 51.9 µM (inactive) in the assay on RPMI-8226; 41.4 µM (inactive) in the assay with IGROV-1; 52.2 µM (inactive) with NCI/ADR-RES. For the same compound, the GI50 in the assay with M14 is 59.2 µM (inactive); in the assay on MCF7 it was 5.93 µM (inactive); in the assay on CCRF-CEM, 59.2 µM (inactive); with HL-60, 28.4 µM (inactive); with NCI-H460, 36.6 µM (inactive); in the assay on BT-549 it was 13.2 µM (inactive). In addition, the GI50 in the assay on OVCAR-3 was 27.1 µM (inactive); in the assay with U-251, 19.6 µM (inactive); in the assay on SF-539, 27.2 µM (inactive); with SK-MEL-28, 32.8 µM (inactive); in the assay on OVCAR-4, 22.3 µM (inactive).
As for `COc1cc(C2SCC(=O)N2NC(=O)c2ccc(NC(C)=O)cc2)cc(OC)c1OC` (centres undefined), the GI50 in the assay with SK-OV-3, in the assay on Hs-578T, in the assay on RPMI-8226, in the assay with IGROV-1, with NCI/ADR-RES and with M14 was > 100 µM (inactive) each time. The GI50 with MCF7, in the assay with HL-60, with NCI-H460, in the assay with MDA-MB-231, in the assay on BT-549 and in the assay on SK-MEL-2 was > 100 µM (inactive) each time. Also, the GI50 with OVCAR-3, in the assay with U-251, in the assay with SF-539, in the assay with SK-MEL-28 and with OVCAR-4 was > 100 µM (inactive) throughout.
For the compound `O=NC1c2cccc3cccc(c23)C1N=O` (centres undefined), the GI50 in the assay with SK-OV-3 was 11 µM (inactive); in the assay on Hs-578T it was 15.9 µM (inactive); in the assay with RPMI-8226, 8.17 µM (inactive); in the assay on IGROV-1, 1.08 µM (active); in the assay on NCI/ADR-RES, 2.39 µM (inactive); with M14, 12 µM (inactive). Further, the GI50 in the assay with MCF7 was 7.93 µM (inactive); in the assay on CCRF-CEM it was 1.19 µM (inactive); in the assay on HL-60, 2.5 µM (inactive); with NCI-H460, 4.36 µM (inactive); in the assay on BT-549, 4.21 µM (inactive); with OVCAR-3 it was 2.69 µM (inactive). The GI50 in the assay with U-251 is 3.1 µM (inactive); with MDA-N it was 3.84 µM (inactive); with SF-539, 12.8 µM (inactive); in the assay with OVCAR-4, 1.59 µM (inactive).
With `COc1ccc2c(c1)CC[C@@H]1[C@@H]2CC[C@]2(C)C(=O)/C(=C/c3ccc(C#N)cc3)C[C@@H]12`, the GI50 in the assay on SK-OV-3, in the assay on SR, in the assay with RPMI-8226, in the assay on IGROV-1, in the assay on NCI/ADR-RES and in the assay with M14 was > 100 µM (inactive) throughout. For the same compound, the GI50 in the assay with MCF7, with CCRF-CEM, in the assay on NCI-H460, with MDA-MB-231, with BT-549 and with SK-MEL-2 was > 100 µM (inactive) each time. For the same compound, the GI50 in the assay on U-251 was > 100 µM (inactive); with MDA-N, > 100 µM (inactive); in the assay on SF-539, > 100 µM (inactive); with SK-MEL-28 it was > 100 µM (inactive); with OVCAR-4, 77.1 µM (inactive).
Turning to `COc1ccc2sc(-n3nc4ccccc4c3Nc3nc4ccc(OC)cc4s3)nc2c1`, the GI50 is 1.94 µM (inactive) in the assay on SK-OV-3; 23.4 µM (inactive) with SR; 1.46 µM (inactive) in the assay on Hs-578T; 0.887 µM (active) in the assay on RPMI-8226; 2.02 µM (inactive) in the assay on IGROV-1; 2.26 µM (inactive) in the assay with NCI/ADR-RES. The GI50 is 7.24 µM (inactive) in the assay on M14; 6.47 µM (inactive) in the assay on MCF7; 96.4 µM (inactive) in the assay with CCRF-CEM; 2.22 µM (inactive) in the assay with NCI-H460; 2.07 µM (inactive) with MDA-MB-231; 2.13 µM (inactive) in the assay with BT-549. In addition, the GI50 with SK-MEL-2 was 15 µM (inactive); in the assay on OVCAR-3 it was 1.79 µM (inactive); in the assay with U-251, 2.76 µM (inactive); in the assay on SF-539, 0.92 µM (active); with SK-MEL-28 it was 7.67 µM (inactive); in the assay with OVCAR-4 it was 1.86 µM (inactive).
As to `COC(=O)C1(C(=O)OC)CC2=C(S(=O)(=O)c3ccccc3)C[C@@H](C#N)[C@H]2C1`, the GI50 in the assay on SK-OV-3 was > 100 µM (inactive); with IGROV-1 it was 52 µM (inactive); with NCI/ADR-RES it was > 100 µM (inactive); with M14, > 100 µM (inactive); with MCF7, 47.5 µM (inactive); with CCRF-CEM, > 100 µM (inactive). Besides, the GI50 with HL-60 is > 100 µM (inactive); with NCI-H460, 91.4 µM (inactive); in the assay with MDA-MB-231, > 100 µM (inactive); with BT-549, 71.8 µM (inactive); in the assay on SK-MEL-2, > 100 µM (inactive); in the assay with OVCAR-3, 25.2 µM (inactive). Further, the GI50 with U-251, in the assay on MDA-N, with SF-539, in the assay with SK-MEL-28 and with OVCAR-4 was > 100 µM (inactive) each time.

The values are drawn from ChEMBL document CHEMBL1201862, “PubChem BioAssay data set” (2004).
